Measured values taken from patent US20110189311A1, “Highly Absorbable Drug Composition and Method of Producing the Same” (TOYO SUGAR REFINING CO., LTD., priority 2009, published 2011).

What was measured:
[1] = Oral administration of drug compositions to rats, blood (plasma) drug concentration by HPLC and AUC; format: in vivo, wistar rats; conditions: average of five rats
Experimental: As test animals, 9-week-old male clean wistar rats (five rats for each of drug compositions A to F) were used. […] After the administration, blood was collected from the neck vein of each clean wistar rat at predetermined time intervals and was centrifuged (10000 rpm, 5 min) to obtain plasma. Four hundred microliters of methanol was added to 100 μL of the obtained plasma, and the mixture was mixed for 1 minute with a vortex mixer and was centrifuged (10000 rpm, 5 min). […] One hundred microliters of ethanol was added to the resulting dried substance, and the blood drug concentration was measured using a UV detector (JASCO PU-970) of HPLC (JASCO PU-980). […] Based on the thus-measured blood drug concentrations of the drug compositions, concentration changes with passage of time and areas under blood drug concentration-time curves (AUC) were studied. […] Note that the values of AUC and blood drug concentration in Table 1 and FIGS. 1 to 6 are averages in the five clean wistar rats administered with each of the drug compositions A to F, and “SE” means standard error.

[2] = at 37° C.; cited from earlier work
[3] = cited from earlier work

CC(C(=O)O)c1ccc(-c2ccccc2)c(F)c1 (centres unmarked) [flurbiprofen]
AUC (area under flurbiprofen plasma concentration-time curve) ([1]; flurbiprofen (FP), dose 2 mg/kg): 22060 ng·h/mL | solubility in neutral water [2]: 25 μg/mL water

CC(C)(Sc1cc(C(C)(C)C)c(O)c(C(C)(C)C)c1)Sc1cc(C(C)(C)C)c(O)c(C(C)(C)C)c1 [probucol]
AUC (area under probucol plasma concentration-time curve) ([1]; probucol (PRO), dose 200 mg/kg): 4940 ng·h/mL | solubility in neutral water [2]: 3 to 5 ng/mL water | bioavailability to human [3]: about 5%
